In test [1] the target is SARS-CoV-2 Main Protease (SARS-CoV-2) (UniProt P0DTD1). The following applies: 50.0 µM.
For test [2] the target is unchanged.

In the case of `Cc1ccc2nc(-c3ccc(N)cc3)sc2c1S(=O)(=O)O`, the inhibition came to 21.2% in test [1] and 0% in test [2] (50.0 µM).

As for `CCC(=O)Nc1ccc(N(Cc2ccccc2)C(=O)Nn2nnc3ccccc32)cc1`, the 50% inhibitory concentration (IC50) in test [2] came to 3.73 µM.

Compound `Nc1nn(C(=O)C2CCOc3ccc(Cl)cc32)c2cc(F)ccc12` (stereo unspecified) displayed an IC50 in test [2] of 53.3 µM.

In the case of `CC(C)(C)c1ccc(N(C(=O)c2ccc(Cl)o2)C(C(=O)NCCc2cccc(F)c2)c2cccnc2)cc1` (stereo unspecified), in test [2], the half-maximal inhibitory concentration (IC50) is 0.515 µM. The compound also had an inhibition in test [2] (50.0 µM) of 69.3%.

`O=C(c1cc(=O)[nH]c2ccccc12)N1CCN(Cc2cccc(Cl)c2)CC1` registered an inhibition in test [2] (50.0 µM) of 50.9%.

In test [2], `Cc1ccncc1NC(=O)Cc1cc(Cl)cc(NC2CCC(F)(F)C2O)c1` (stereo unspecified) showed an IC50 of 25.7 µM.

Regarding `O=C(Nc1n[nH]c2ccnc(Br)c12)C1CCOc2ccc(Cl)cc21` (stereo unspecified), the IC50 in test [2] is 74.2 µM.

In turn, `O=C(CN(C(=O)Cc1cccnc1)c1ccc(-c2ncccn2)cc1)N1CCNCC1` came in with an inhibition in test [2] (50.0 µM) of 0%.

`CC(=O)NCc1cc(Cl)cc(CC(=O)Nc2cnccc2C)c1`: in test [2], the IC50 came out at 55.5 µM.

`CCc1cc(F)ccc1-c1cc(Cl)cc(CC(=O)Nc2cnccc2C)c1` displayed a concentration for half-maximal inhibition (IC50) in test [2] of 26 µM.

In test [2], `Cc1cc(O)c2c(c1)C1(O)CC(C2=O)C2=C1C(=O)c1c(O)cccc1C2=O` (stereo unspecified) displayed an IC50 of 58.2 µM. The same compound yielded an inhibition in test [2] (50.0 µM) of 81.1%.

`Cc1ccc(NC2=C(c3ccccc3)C(=O)N(Cc3cccnc3)C2=O)cc1Cl`: in test [2], the IC50 stood at 32.2 µM.

As to `O=C(Cn1nnc2ccccc21)N(Cc1ccsc1)c1ccc(N2CCOCC2)cc1`, in test [2], the IC50 was 21.3 µM.

In test [2] (50.0 µM), `O=C(NC[C@@]1(COc2ccc(C(F)(F)F)cn2)C[C@@H](O)[C@@H](O)C1)Nc1cccnc1` came in with an inhibition of 0%.

For the compound `CC(=O)O[C@@H]1OC2OC(=O)[C@H](C)C3=C([C@@]4(C)CCCC(C)(C)C4)CCC1C32` (stereo in doubt), the inhibition in test [2] (50.0 µM) stood at 0%.

With `O=C1OC(c2cccs2)=N/C1=C\c1ccc(N2CCOCC2)s1`, the IC50 in test [2] worked out at 0.706 µM. In test [2] (50.0 µM), this compound registered an inhibition of 91.7%.

Consider `CC(C)(O)CC1C2=C(Oc3c1c1c(c4ccccc34)OC(C)(C)C=C1)C(=O)c1ccccc1C2=O` (stereo unspecified), for which the inhibition in test [2] (50.0 µM) stood at 3.92%.

For `CC(=O)N1CCN(Cc2ccsc2)CC1`, the inhibition in test [2] (20.0 µM) amounted to 98.5%; in test [2] (50.0 µM), 97.4%.

In turn, `CC(C)(C)c1ccc(N(C(=O)c2ccco2)[C@H](C(=O)NCCc2cccc(F)c2)c2cccnc2)cc1` yielded an inhibition in test [2] (50.0 µM) of 100%.

As to `O=C(Cc1cccc(Cl)c1)Nc1n[nH]c2ccc(F)cc12`, in test [2], the IC50 came to 88.6 µM.

`Cn1c(C(NC(=O)Cc2cc3ccccc3[nH]2)c2cccc(Cl)c2)nc2ccccc21` (stereo unspecified) came in with an IC50 in test [2] of 31.4 µM.

For the compound `Cc1cc2c(c(O)c1-c1c(C)cc(O)c3c1C(=O)C=CC3=O)C(=O)C=CC2=O`, in test [2], the 50% inhibitory concentration (IC50) is 8.41 µM. Moreover, the inhibition in test [2] (50.0 µM) is 100%.

In turn, `Cc1ccncc1NC(=O)Cc1cc(Cl)cc(-c2cnn(C)c2C(F)F)c1` showed an IC50 in test [2] of 16 µM.

As for `COc1c(Cl)cccc1OCCNC(=O)c1cc(=O)[nH]c2ccccc12`, the IC50 in test [2] was 16.5 µM.

Consider `COC(=O)C(C(=O)Nc1cnccc1C)c1cccc(Cl)c1` (stereo unspecified), for which the IC50 in test [2] is 17.1 µM.

For `O=C(Cn1nnc2ccccc21)N(Cc1cccc(Cl)c1)c1ccc(N2CCCCC2)cc1`, in test [2], the half-maximal inhibitory concentration (IC50) stood at 6.02 µM.

In test [2], `Cc1ccncc1NC(=O)Cc1cc(Cl)cc(-c2ccc(C3(C)CCO3)cc2)c1` (stereo unspecified) showed a 50% inhibitory concentration (IC50) of 15.3 µM.

Compound `CCCCN1C(=O)C(=O)c2cc(Br)cc(C)c21` had a 50% inhibitory concentration (IC50) in test [2] of 57.6 µM.

`Cc1ccncc1NC(=O)Cc1cc(Cl)cc(OCc2ncn[nH]2)c1` showed a 50% inhibitory concentration (IC50) in test [2] of 81 µM.

In the case of `Cc1ccncc1NC(=O)Cc1cc(Cl)cc(OCCN2CCOCC2C)c1` (stereo unspecified), in test [2] (50.0 µM), the inhibition was found to be 23.9%.

Take `Cc1ccncc1NC(=O)Cc1cc(Cl)cc(OCc2nnc(C3CCCCC3)o2)c1`: the 50% inhibitory concentration (IC50) in test [2] came out at 13.3 µM. This compound gave an inhibition in test [2] (50.0 µM) of 100%.

As for `O=C1CC(C(=O)Nc2cncc3ccccc23)c2cc(Br)ccc2N1` (stereo unspecified), in test [2], the IC50 was 1.12 µM.

For the compound `Cc1c(N)cncc1NC(=O)Cc1cccc(C#N)c1`, in test [2], the IC50 amounted to 32.2 µM.

Compound `O=C(Nc1ccc(Cl)cc1)[C@@H](c1ccccc1)N1Cc2ccccc2C1=O` (stereo in doubt) had a concentration for half-maximal inhibition (IC50) in test [2] of 65 µM.

The compound `Cc1ccncc1NC(=O)Cc1cc(Cl)cc(OCc2cc(-c3ccc(Cl)cc3)no2)c1` returned an IC50 in test [2] of 48.8 µM. In test [2] (50.0 µM), this compound gave an inhibition of 41.8%.

In the case of `O=C(Cc1cccc(Cl)c1)Nc1cncc2nc[nH]c12`, in test [2], the concentration for half-maximal inhibition (IC50) is 7.97 µM. The compound also came in with an inhibition in test [2] (50.0 µM) of 79.5%.

For `O=C(Nc1cncc2ccccc12)C1COc2ccc(Cl)cc21` (stereo unspecified), the half-maximal inhibitory concentration (IC50) in test [2] was determined as 0.509 µM. This compound came in with an inhibition in test [2] (50.0 µM) of 77%.

`O=C(Cc1cccc(Cl)c1)Nc1[nH]nc2cccc(F)c12` had an IC50 in test [2] of 81.8 µM.

In turn, `Cc1ccncc1NC(=O)Cc1cc(Cl)cc(OC2COC2)c1` gave a half-inhibitory concentration (IC50) in test [2] of 15.3 µM.

For `O=C(Cc1cncc2ccccc12)N(CCC1CCCCC1)c1cccc(Cl)c1`, in test [2], the IC50 amounted to 1.02 µM.

In test [2], `O=C(c1cncc2ccccc12)N1CCN(c2cccc(Cl)c2)CC1` came in with an IC50 of 0.833 µM.

On to `CC(=O)N1CCN(Cc2cccs2)CC1`, for which the inhibition in test [2] (20.0 µM) amounted to 96.7%; in test [2] (50.0 µM), 95.7%.

Turning to `COc1cc2c(c3ccccc13)OC(C)(C)CC2Oc1cc2c(cc1C)C(=O)c1ccccc1C2=O` (stereo unspecified), in test [2] (50.0 µM), the inhibition is 4%.

Turning to `CN(CC(=O)Nc1ccccc1Br)C(=O)CCl`, the inhibition in test [2] (50.0 µM) turned out to be 52.3%.

`CCC(=O)Nc1ccc(N(Cc2cscn2)C(=O)Cn2nnc3ccccc32)cc1` displayed a half-maximal inhibitory concentration (IC50) in test [2] of 46.1 µM.

In test [2], `Cc1ccncc1NC(=O)Cc1cc(Cl)cc(C2COC2)c1` gave an IC50 of 56.9 µM.

Compound `O=C(O)c1cn(-c2ccc(F)cc2)c2cc(N3CCNCC3)c(F)cc2c1=O` gave an inhibition in test [2] (50.0 µM) of 20%.

Take `COc1cc(COc2cc(Cl)cc(CC(=O)Nc3cnccc3C)c2)ccc1OC(F)F`: the half-maximal inhibitory concentration (IC50) in test [2] came to 7.39 µM.

With `O=C(Nc1cncc2ccccc12)C1(CCC2CC2)CCOc2ccc(Cl)cc21` (stereo unspecified), the IC50 in test [2] was found to be 93.9 µM.

The compound `O=C(Cc1cccc(Cl)c1)Nc1cncc2c1CCCN2` yielded an IC50 in test [2] of 4.04 µM.

`O=C(Nc1cncc2ccccc12)[C@@H]1COc2ccc(Cl)cc2C1` (stereo in doubt) yielded an IC50 in test [2] of 3.56 µM.

For `Cc1ccc(N(Cc2cscn2)C(=O)Cc2cncc3ccccc23)cc1`, the IC50 in test [2] amounted to 13.6 µM.

Compound `COc1ccccc1OCCC(=O)Nc1cncc2ccccc12` showed a 50% inhibitory concentration (IC50) in test [2] of 85.4 µM.

Regarding `O=C(Cc1cccc(Cl)c1)Nn1nnc2ccccc21`, the IC50 in test [2] is 31 µM.

`CN(C)c1ccc(N(Cc2cscn2)C(=O)Cn2nnc3ccccc32)cc1` came in with an IC50 in test [2] of 14.3 µM.
